# Source: ChEMBL document CHEMBL3044945, “Synthesis of 1,3,5-trisubstituted pyrazoline nucleus containing compounds and screening for antimicrobial activity” (2012)
# Columns and labels:
# Type in all cases: functional
# Aspergillus niger = assay: Antifungal activity against Aspergillus niger MTCC 2546 at 10 ug/ml after 48 hr by cup-plate method; conditions: MTCC 2546, 48 h, read-out: DIZ
# Penicillium chrysogenum = assay: Antifungal activity against Penicillium chrysogenum MTCC 161 at 10 ug/ml after 48 hr by cup-plate method; conditions: MTCC 161, 48 h, read-out: DIZ
# Pseudomonas aeruginosa = assay: Antibacterial activity against Pseudomonas aeruginosa MTCC 424 at 10 ug/ml after 48 hr by cup-plate method; conditions: MTCC 424, 48 h, read-out: DIZ
# Micrococcus luteus = assay: Antibacterial activity against Micrococcus luteus MTCC 1538 at 10 ug/ml after 48 hr by cup-plate method; conditions: MTCC 1538, 48 h, read-out: DIZ
# Bacillus pumilus = assay: Antibacterial activity against Bacillus pumilus MTCC 1456 at 10 ug/ml after 48 hr by cup-plate method; conditions: MTCC 1456, 48 h, read-out: DIZ
# Bacillus subtilis = assay: Antibacterial activity against Bacillus subtilis MTCC 441 at 10 ug/ml after 48 hr by cup-plate method; conditions: MTCC 441, 48 h, read-out: DIZ
# Pseudomonas fluorescens = assay: Antibacterial activity against Pseudomonas fluorescens MTCC 2421 at 10 ug/ml after 48 hr by cup-plate method; conditions: MTCC 2421, 48 h, read-out: DIZ
# Escherichia coli = assay: Antibacterial activity against Escherichia coli MTCC 1573 at 10 ug/ml after 48 hr by cup-plate method; conditions: MTCC 1573, 48 h, read-out: DIZ
# Staphylococcus aureus = assay: Antibacterial activity against Staphylococcus aureus MTCC 1430 at 10 ug/ml after 48 hr by cup-plate method; conditions: MTCC 1430, 48 h, read-out: DIZ
Compound,zone of inhibition at 10 µg/mL (Aspergillus niger),zone of inhibition at 10 µg/mL (Penicillium chrysogenum),zone of inhibition at 10 µg/mL (Pseudomonas aeruginosa),zone of inhibition at 10 µg/mL (Micrococcus luteus),zone of inhibition at 10 µg/mL (Bacillus pumilus),zone of inhibition at 10 µg/mL (Bacillus subtilis),zone of inhibition at 10 µg/mL (Pseudomonas fluorescens),zone of inhibition at 10 µg/mL (Escherichia coli),zone of inhibition at 10 µg/mL (Staphylococcus aureus)
OC(Cn1cncn1)(Cn1cncn1)c1ccc(F)cc1F [FLUCONAZOLE],24 mm,25 mm,–,–,–,–,–,–,–
CCn1cc(C(=O)O)c(=O)c2cc(F)c(N3CCNCC3)cc21 [NORFLOXACIN],–,–,24 mm,32 mm,27 mm,25 mm,27 mm,27 mm,28 mm
